According to patent publication US6706663B2, “Herbicidal 3-heterocyclic substituted benzisothiazole and benzisoxazole compounds” (Wyeth, priority 2000, dated 2004):

Key:
[1] = tested on: ABUTH (Abutilon theophrasti); assay: Postemergence herbicidal evaluation; format: in vivo, Medic.
Outline: (§1)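 Seedlings grown about two weeks in flats, sprayed, then kept under standard greenhouse care. Rated visually 4–5 weeks after treatment on a 0–9 scale (stand, vigour, malformation, size, chlorosis, overall appearance) relative to untreated control; repeat tests averaged.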

[2] = tested on: AMBEL (Ambrosia artemisifolia); assay: Postemergence herbicidal evaluation; format: in vivo, L.
Outline: as §1

[3] = tested on: CASOB (Cassia obtusifolia); assay: Postemergence herbicidal evaluation; format: in vivo, L.
Outline: as §1

[4] = tested on: CHEAL (Chenopodium album); assay: Postemergence herbicidal evaluation; format: in vivo, L.
Outline: as §1

GALAP (Galium aparine) [5] = assay: Postemergence herbicidal evaluation; format: in vivo
Outline: as §1

[6] = tested on: IPOHE (Ipomoea hederacea); assay: Postemergence herbicidal evaluation; format: in vivo, (L.) Jacq.
Outline: as §1

[7] = tested on: GLXMAW (Soybean, Williams); assay: Postemergence herbicidal evaluation; format: in vivo, Glycine max, (L.) Merr. cv Williams
Outline: as §1

ORYSAT (Rice, Tebonnet) [8] = assay: Postemergence herbicidal evaluation; format: in vivo, Oryza sativa, (L.) Tebonnet
Outline: as §1

ZEAMX (Corn, Field) = assay: Postemergence herbicidal evaluation; format: in vivo, Zea mays, L.
Outline: as §1

GALAP (Galium aparine) [9] = assay: Preemergence herbicidal evaluation; format: in vivo; settings: preemergence, rated 4-5 weeks after treatment
Outline: (§2)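 Scores (0–9) reflect visual comparison with control plants for stand, vigor, malformation, size and chlorosis. Seeds in potting soil received a post-planting spray of compound in aqueous acetone and grew in a greenhouse until assessment 4–5 weeks later.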

[10] = tested on: ECHCG (Echinochloa crus-galli); assay: Preemergence herbicidal evaluation; format: in vivo, (L.) Beau; settings: preemergence, rated 4-5 weeks after treatment
Outline: as §2

SETVI (Setaria viridis) = assay: Preemergence herbicidal evaluation; format: in vivo, (L.) Beau; settings: preemergence, rated 4-5 weeks after treatment
Outline: as §2

ORYSAT (Rice, Tebonnet) [11] = assay: Preemergence herbicidal evaluation; format: in vivo, Oryza sativa, (L.) Tebonnet; settings: preemergence, rated 4-5 weeks after treatment
[12] = tested on: TRZAWR (Wheat, Winter, cv Riband); assay: Preemergence herbicidal evaluation; format: in vivo, Triticum aestivum; settings: preemergence, rated 4-5 weeks after treatment
Outline: as §2

Which “Postemergence herbicidal rating, ABUTH” value ([1]; rate 0.0320 kg/ha) does the source give for COc1ccsc1-c1nsc2ccc(-n3c(=O)cc(C(F)(F)F)n(C)c3=O)cc12 [Compound 10, 3-[3-(3-methoxy-2-thienyl)-1,2-benzisothiazol-5-yl]-1-methyl-6-(trifluoromethyl)uracil] here?
Its value is 8.0.

And the “Postemergence herbicidal rating, ABUTH” value ([1]; rate 0.0620 kg/ha)?
The value was 8.0.

What about the “Postemergence herbicidal rating, ABUTH” value ([1]; rate 0.1250 kg/ha) of the same compound?
Its value is 9.0.

What about the “Postemergence herbicidal rating, AMBEL” value ([2]; rate 0.0320 kg/ha) of the same compound?
The value was 2.0.

What about the “Postemergence herbicidal rating, AMBEL” value ([2]; rate 0.0620 kg/ha) of the same compound?
The value was 3.0.

What about the “Postemergence herbicidal rating, AMBEL” value ([2]; rate 0.1250 kg/ha) of the same compound?
Its value is 9.0.

And the “Postemergence herbicidal rating, CASOB” value ([3]; rate 0.0320 kg/ha)?
The value was 0.0.

And the “Postemergence herbicidal rating, CASOB” value ([3]; rate 0.0620 kg/ha)?
Its value is 0.0.

And the “Postemergence herbicidal rating, CASOB” value ([3]; rate 0.1250 kg/ha)?
Its value is 1.0.

And the “Postemergence herbicidal rating, CHEAL” value ([4]; rate 0.0320 kg/ha)?
Its value is 1.0.

What about the “Postemergence herbicidal rating, CHEAL” value ([4]; rate 0.0620 kg/ha) of the same compound?
The value was 1.0.

What about the “Postemergence herbicidal rating, CHEAL” value ([4]; rate 0.1250 kg/ha) of the same compound?
The value was 4.0.

What about the “Postemergence herbicidal rating, GALAP” value (GALAP (Galium aparine) [5]; rate 0.0320 kg/ha) of the same compound?
The value was 1.0.

And the “Postemergence herbicidal rating, GALAP” value (GALAP (Galium aparine) [5]; rate 0.0620 kg/ha)?
The value was 1.0.

What about the “Postemergence herbicidal rating, GALAP” value (GALAP (Galium aparine) [5]; rate 0.1250 kg/ha) of the same compound?
The value was 9.0.

And the “Postemergence herbicidal rating, IPOHE” value ([6]; rate 0.0320 kg/ha)?
Its value is 2.0.

And the “Postemergence herbicidal rating, IPOHE” value ([6]; rate 0.0620 kg/ha)?
Its value is 2.0.

What about the “Postemergence herbicidal rating, IPOHE” value ([6]; rate 0.1250 kg/ha) of the same compound?
The value was 7.0.

What about the “Postemergence herbicidal rating, GLXMAW” value ([7]; rate 0.0320 kg/ha) of the same compound?
The value was 4.8.

What about the “Postemergence herbicidal rating, GLXMAW” value ([7]; rate 0.0620 kg/ha) of the same compound?
The value was 5.0.

What about the “Postemergence herbicidal rating, GLXMAW” value ([7]; rate 0.1250 kg/ha) of the same compound?
Its value is 6.0.

What about the “Postemergence herbicidal rating, ORYSAT” value (ORYSAT (Rice, Tebonnet) [8]; rate 0.0320 kg/ha) of the same compound?
Its value is 1.3.

And the “Postemergence herbicidal rating, ORYSAT” value (ORYSAT (Rice, Tebonnet) [8]; rate 0.0620 kg/ha)?
The value was 1.8.

What about the “Postemergence herbicidal rating, ORYSAT” value (ORYSAT (Rice, Tebonnet) [8]; rate 0.1250 kg/ha) of the same compound?
The value was 3.0.

And the “Postemergence herbicidal rating, ZEAMX” value (ZEAMX (Corn, Field); rate 0.0320 kg/ha)?
Its value is 3.8.

And the “Postemergence herbicidal rating, ZEAMX” value (ZEAMX (Corn, Field); rate 0.0620 kg/ha)?
Its value is 5.0.

What about the “Postemergence herbicidal rating, ZEAMX” value (ZEAMX (Corn, Field); rate 0.1250 kg/ha) of the same compound?
Its value is 5.0.

What about the “GALAP preemergence herbicidal rating” value (GALAP (Galium aparine) [9]; Rate 0.0620 kg/ha) of the same compound?
The value was 5.0.

What about the “GALAP preemergence herbicidal rating” value (GALAP (Galium aparine) [9]; Rate 0.1250 kg/ha) of the same compound?
The value was 8.5.

What about the “GALAP preemergence herbicidal rating” value (GALAP (Galium aparine) [9]; Rate 0.2500 kg/ha) of the same compound?
Its value is 8.0.

What about the “ECHCG preemergence herbicidal rating” value ([10]; Rate 0.0620 kg/ha) of the same compound?
Its value is 0.5.

What about the “ECHCG preemergence herbicidal rating” value ([10]; Rate 0.1250 kg/ha) of the same compound?
The value was 5.0.

And the “ECHCG preemergence herbicidal rating” value ([10]; Rate 0.2500 kg/ha)?
Its value is 9.0.

And the “SETVI preemergence herbicidal rating” value (SETVI (Setaria viridis); Rate 0.0620 kg/ha)?
Its value is 7.5.

And the “SETVI preemergence herbicidal rating” value (SETVI (Setaria viridis); Rate 0.1250 kg/ha)?
Its value is 9.0.

And the “SETVI preemergence herbicidal rating” value (SETVI (Setaria viridis); Rate 0.2500 kg/ha)?
The value was 9.0.

And the “ORYSAT preemergence herbicidal rating” value (ORYSAT (Rice, Tebonnet) [11]; Rate 0.0620 kg/ha)?
Its value is 1.0.

What about the “ORYSAT preemergence herbicidal rating” value (ORYSAT (Rice, Tebonnet) [11]; Rate 0.1250 kg/ha) of the same compound?
Its value is 3.0.

What about the “ORYSAT preemergence herbicidal rating” value (ORYSAT (Rice, Tebonnet) [11]; Rate 0.2500 kg/ha) of the same compound?
The value was 7.0.

And the “TRZAWR preemergence herbicidal rating” value ([12]; Rate 0.0620 kg/ha)?
Its value is 1.5.

And the “TRZAWR preemergence herbicidal rating” value ([12]; Rate 0.1250 kg/ha)?
The value was 4.5.

And the “TRZAWR preemergence herbicidal rating” value ([12]; Rate 0.2500 kg/ha)?
The value was 7.0.
